According to US20080003215A1, “Use of pre-dissolved pristinamycin-type and polyether ionophore type antimicrobial agents in the production of ethanol” (priority 2006, published 2008):
Read-outs that look alike come from different tables or passages of the source.

Experiments:
[1] = cited from earlier work
[2] = Rate of dissolution of powdered virginiamycin in stirred water; format: physicochemical; conditions: 0.1 gram of 5.2 to 10 micron average particle size powder in 4 liters of water, continuously stirred
Description: The solubility of monensin, virginiamycin, and similar pristinamycin-type antimicrobial agents and polyether ionophore-type antimicrobial agents in water is very low. Much more important, however, is the rate of dissolution of small granular pristinamycin-type antimicrobial agents and polyether ionophore-type antimicrobial agents in water. A 0.1 gram sample of a 5.2 to 10 micron average particle size virginiamycin was placed in a beaker with 4 liters of water, and the composition was continuously stirred. The presence of undissolved crystals was very evident.

[3] = system: consortium of 6 Lactobacilli spp cultures; assay: Corn mash fermentation without yeast, inoculated with Lactobacillus consortium, well-mixed or poorly-mixed fermentors; format: cell-based, Lactobacillus sp
Description: The purpose of this experiment is to determine the efficacy of virginiamycin in three forms (DMSO-solubilized virginiamycin, Belgium powdered virginiamycin, and Brazilian powdered virginiamycin) in real corn mash fermentations against a consortium of Lactobacillus sp bacteria. No yeasts will be added. The efficacy of these forms of virginiamycin will be further tested in fermentors that will be properly (continuously) mixed and in fermentors that have improper mixing—simulating more closely the fermentor mixing conditions seen in field ethanol plants.
The first step in testing was the preparation of corn mash (i.e., Gelatinization, Liquefaction, and Saccharification). […]
The mash temperature was then decreased to 60° C. at which point 2 L water and 200 ml G-Zyme™ 480 Ethanol glucoamylase (available from Genencor, Rochester, N.Y.) were added. […] No bacterial contamination was detected in any test incubated mashes.
For each 7.6 L sterile container of mash, a 60 g aliquot was removed and divided into two 30 g sub-samples within 50 ml centrifuge tubes. […] The specific gravity of each subsample was then determined using a digital density meter (DMA-45; Anton Paar KG, Graz, Austria) which was temperature regulated to 4° C. If the readings on the density meter were off-scale, then a precise dilution of the subsamples were done and then re-read in the density meter. […]

L. plantarum = assay: Development of resistance test (10 week duration); format: cell-based; conditions: 10 week duration of the test
Description: One very effective control program involves the introduction of pristinamycin-type antimicrobial agents, and particularly virginiamycin, to the process. […] Usually, the “waste” byproduct, known as “Dried Distillers Grains with Solubles (DDGS), is sold as animal feed, going 45% to dairy, 35% to beef, 15% to swine, and 5% to poultry industries. This is an important factor in the profitability of an ethanol production process, and the total amount of this byproduct produced per year is on the order of 3.5 million metric tons per year. The presence of residual antimicrobial agents in this material can adversely affect the value of this byproduct, as small residual amounts of antimicrobial agents in feed will promote the development of agent-resistant microorganisms. We have tested DDGS samples from 8 major ethanol producers using virginiamycin to control microorganisms and found no detectable amount of virginiamycin in the DDGS (<1 ppm via the validated Eurofins analysis and <1 ppb via an unvalidated experimental analytical procedure). […] Generally, however, the virginiamycin in mash is destroyed by drying so virginiamycin must be re-added to the feed if so desired. Other effective control agents include polyether ionophore-type antimicrobial agents, which provide many of the benefits obtained with pristinamycin-type antimicrobial agents. […]

virginiamycin
Solubility (literature data, "virginiamycin-type" compounds) ([1]; solvent: 1% ethanol in water): 0.002 mg/mL
Solubility (literature data, "virginiamycin-type" compounds) ([1]; solvent: DMSO): > 100 mg/mL
Solubility (literature data, "virginiamycin-type" compounds) ([1]; solvent: acetone, disproportionate solubilities for Type A and Type B): ~190 mg/mL
Solubility (literature data, "virginiamycin-type" compounds) ([1]; solvent: amylacetate): > 4 mg/mL
Solubility (literature data, "virginiamycin-type" compounds) ([1]; solvent: benzene): > 3 mg/mL
Solubility (literature data, "virginiamycin-type" compounds) ([1]; solvent: butanol): > 10 mg/mL
Solubility (literature data, "virginiamycin-type" compounds) ([1]; solvent: carbon tetrachloride): 0.02 mg/mL
Solubility (literature data, "virginiamycin-type" compounds) ([1]; solvent: chloroform): 150 mg/mL
Solubility (literature data, "virginiamycin-type" compounds) ([1]; solvent: dimethylformamide): 200 mg/mL
Virginiamycin that can be dissolved (literature data) ([1]; solvent: dimethylformamide): 200 grams
Virginiamycin that can be dissolved (literature data) ([1]; solvent: dimethylsulfoxide): 200 grams
Solubility (literature data, "virginiamycin-type" compounds) ([1]; solvent: dioxane): 130 mg/mL
Solubility (literature data, "virginiamycin-type" compounds) ([1]; solvent: ethanol): 70 mg/mL
Solubility (literature data, "virginiamycin-type" compounds) ([1]; solvent: ether, disproportionate solubilities for Type A and Type B): 11 mg/mL
Solubility (literature data, "virginiamycin-type" compounds) ([1]; solvent: ethyl acetate, disproportionate solubilities for Type A and Type B): ~205 mg/mL
Solubility (literature data, "virginiamycin-type" compounds) ([1]; solvent: hexane): 0.2 mg/mL
Solubility (literature data, "virginiamycin-type" compounds) ([1]; solvent: isopropanol): > 10 mg/mL
Solubility (literature data, "virginiamycin-type" compounds) ([1]; solvent: methanol): 25 mg/mL
Solubility (literature data, "virginiamycin-type" compounds) ([1]; solvent: methylethylketone): 35 mg/mL
Solubility (literature data, "virginiamycin-type" compounds) ([1]; solvent: toluene, disproportionate solubilities for Type A and Type B): 82 mg/mL
Solubility (literature data, "virginiamycin-type" compounds) ([1]; solvent: water): 0.0002 mg/mL
Solubility in water ([1]; water, background statement): 0.0001 grams/l
Time until only a few crystals remained visible (dissolution) [2]: on the order of an hour
Lactobacilli killed ([3]; pre-solubilized agent, within 6 hours): at least 90%
Lactobacillus count ([3]; well mixed fermentors (150 RPM), 1 ppm virginiamycin, inoculum 5E5 CFU/ml, up to 48 h): ≤ 1 E6 CFU/ml
Time until L. plantarum developed resistance (L. plantarum): no development of resistance
